Measurements: US12215129B2, “Antibacterial cyclopeptides targeting acinetobacter and other gram-negative pathogens” (priority 2020, dated 2025)
Starred links: 1 amine or outer side, 2 acyl side, 3 side chain; linkers in the order of their positions; H or OH if unused. Positions of bridges follow the written chain, without caps; N, C: chain ends. Non-standard residues stand in square brackets, D forms with d. Residues, ends and D or L forms follow the SMILES beside them. *: point of attachment. dAsp(3R-OH) = N[C@@H](C(=O)O)[C@@H](O)C(=O)O; X1 = NC[C@H](O)[C@@H](N[*:1])C(=O)[*:2]; X2 = CCC(C)(O)[C@H](N[*:1])C(=O)[*:2]; d(aIle) = CC[C@H](C)[C@@H](N)C(=O)O; Myristoyl = CCCCCCCCCCCCCC(=O)*; dOrn = NCCC[C@@H](N)C(=O)O; hSer = N[C@@H](CCO)C(=O)O

How the values were obtained:
[1] = mouse, in vivo
in vivo = details: female, BALB/c, mouse
[2] = iv, 5 mg/kg, Mean plasma concentration

CCCCCCCCCCCCCC(=O)N[C@H](CCCN)C(=O)N[C@@H](CO)C(=O)N[C@H](C(=O)N[C@@H](C(=O)N[C@@H](C(=O)N[C@@H]1C(=O)NCC(=O)N[C@@H](C(C)(O)CC)C(=O)N[C@H]([C@@H](C)CC)C(=O)N[C@@H](CCO)C(=O)N[C@@H](C)C(=O)N[C@H]([C@@H](C)CC)C(=O)N[C@@H](CCC(=O)O)C(=O)O[C@@H]1C)[C@@H](O)CN)[C@@H](O)C(=O)O)C(C)C (stereo partly drawn) [Compound 1, Turnercyclamycin A] (Myristoyl-[dOrn]SV[dAsp(3R-OH)][X1]TG[X2][d(aIle)][hSer]A[d(aIle)]E; ester 6-C)
B.W. (g) [1]: − | Body Temperature [1]: − | Convulsion [1]: − | Convulsion C.T.C-T [1]: − | Dec. Exploration [1]: − | Dec. Palpebral [1]: − | Dec. Palpebral Size [1]: − | Dec. Startle [1]: − | Dec. Startle Response [1]: − | Dec. Touch [1]: − | Dec. Touch Response [1]: − | Diarrhea [1]: − | Grip Strength [1]: − | Hyperactivity [1]: − | Inc. Exploration [1]: − | Inc. Palpebral Size [1]: − | Inc. Startle [1]: − | Lacrimation [1]: − | Limb Tone [1]: + | Piloerection [1]: ± | Pinna [1]: − | Placing [1]: − | Righting [1]: − | Salivation F.V. [1]: − | Skin Color [1]: − | Straub Tail [1]: − | adverse effects noted after the two administrations [1]: decrease in adnominal tone, limb tone, and spontaneous activity, and tremor, piloerection, and increase in the respiration rate (fast) | dose up to which well tolerated in mice [1]: up to 50 mg/kg | more pronounced adverse effects elicited [1]: vocalization, ataxia, reactivity, and hunch back | clearance (in vivo): 0.29 mL/min/kg | AUC(0-inf) (in vivo; iv, 5 mg/kg): 290 µg·h/mL | AUC(0-t) (in vivo; iv, 5 mg/kg): 285 µg·h/mL | C0 (in vivo; iv, 5 mg/kg): 33700 ng/mL | MRT (in vivo; iv, 5 mg/kg): 5.83 h | Vd (in vivo; iv, 5 mg/kg): 0.1 L/kg | clearance (in vivo; iv, 5 mg/kg): 0.29 mL/min/kg | half-life (in vivo; iv, 5 mg/kg): 4.35 h | level at 0.05 h (in vivo; [2]): 53300 ng/mL | level at 0.167 h (in vivo; [2]): 38600 ng/mL | level at 0.5 h (in vivo; [2]): 33700 ng/mL | level at 1 h (in vivo; [2]): 29300 ng/mL | level at 2 h (in vivo; [2]): 26200 ng/mL | level at 4 h (in vivo; [2]): 22500 ng/mL | level at 8 h (in vivo; [2]): 12000 ng/mL | level at 24 h (in vivo; [2]): 931 ng/mL | level at 0.5 h (in vivo; iv, 5 mg/kg, Sample concentration in plasma (individual mouse)): 34400 ng/mL
